Experiments:
[1] = test system: DLD-1 colon cancer cells; test: In vivo tumor formation of DLD-1 cells in NSG mice; parameters: species or system NOD/Shi-scid/IL-2Rγnull (NSG) mice
Description: (A), IL-22 is expressed in colon cancer tissues. IL-22 mRNA was detected by real-time PCR in colon cancer tissues and peripheral blood. *P<0.05 compared to blood, 20 colon cancer patients. (B-D), Endogenous IL-22 promotes colon carcinogenesis. Single cells (10^7) isolated from colon cancer tissue were mixed with anti-IL-22 antibody or control mAb, and then subcutaneously injected to NSG mice. Tumor growth (B), incidence (C), and animal survival (D) are shown. (P<0.05 for all, n=5 per group). (E-G) Recombinant IL-22 promotes colon carcinogenesis. DLD-1 colon cancer cells (10^5) were pre-incubated with IL-22 (20 ng/ml) for 1 hour, and then subcutaneously injected to NSG mice. Tumor growth (E), incidence (F), and animal survival (G) are shown. (P<0.05 for all, n=5 per group). (H, I) IL-22 enhances colon cancer sphere formation. DLD-1 colon cancer cells were pre-incubated for 24 hours with IL-22. Sphere assay was performed with 2,000 cells. Representative image of spheres (H) and the mean numbers of spheres (I) are shown. *P<0.05, n=5. (J) IL-22 increases ALDH1 activity in colon cancer cells. Colon cancer cell lines (DLD-1 and HT29) and two primary colon cancer cells (1, 2) were cultured with IL-22 for 24 hours. ALDH activity was determined by FACS based on aldefluor fluorescence. Cells treated with DEAB inhibitor were negative controls. Results are expressed as fold changes of ALDH expression. (P<0.05 for all, n=3 repeats per group). (K-M) IL-22 stimulates core stem cell gene expression in colon cancer cells. DLD-1 colon cancer cells were cultured with IL-22 (20 ng/ml). The mRNA of stem cell core gene was detected by real-time PCR (K) and proteins were detected by western blotting (L, M). (*P<0.05, n=5).
IL-22 treated 10^6 DLD-1 cells were inoculated into NSG mice. Tumor incidence (A) and tumor growth (B) were recorded. n=5 per group, P<0.05.
To confirm the tumorigenic potential of endogenous IL-22, different concentrations of a colorectal adenocarcinoma cancer cell line, DLD-1 cells, were injected into the NSG mice to determine a nontumorigenic concentration. […] However, exogenous IL-22 administration enabled tumor formation with 10^5DLD-1 cells as shown by increased tumor volume (FIG. 1E) and incidence (FIG. 1F) and decreased mouse survival (FIG. 1G). When 10^6 DLD-1 cells were inoculated into mice, IL-22 accelerated tumor development (FIG. 13A) and growth as well (FIG. 13B). Thus, IL-22 may enhance tumorigenesis by altering cancer stem cell properties.
Colon cancer cells (10^2-5×10^6) in 100 μl of buffered saline were subcutaneously injected into dorsal tissues of female NOD/Shi-scid/IL-2Rγnull (NSG) mice (6-8 weeks old, Jackson Lab, Bar Harbor, Me.) (see, e.g., Curiel, T. J. et al. (2004) Nat Med 10, 942-949; Curiel, T. J. et al. (2003) Nat Med 9, 562-567; Kryczek, I. et al. (2012) Int J Cancer 130, 29-39). Tumor size was measured two times weekly using calipers fitted with a Vernier scale. Tumor volume was calculated based on three perpendicular measurements (see, e.g., Curiel, T. J. et al. (2004) Nat Med 10, 942-949; Curiel, T. J. et al. (2003) Nat Med 9, 562-567). Tumor incidence was monitored.

[2] = test system: EZH2, SUZ12, EED, CBX8; test: PcG / PRC2 component expression (real-time PCR, western blot); assay type: cell-based, human
Description: A, C. Cell proliferation was analyzed using H^3 Thymidine Incorporation. B. The level of total H3K79m2 and H3K27me3 was measured by Western Blot. D. PcG proteins of EZH2, EED, SUZ12 was increased with IL-22(20 ng/ml) treatment. E. EZH2, SUZ12 and EED was detected by Western Blot after IL-22 treated for 24 h or 48 h. F. EZH2 inhibitor DZNep reduced cell proliferation. G.H. The efficiency of EZH2 and SUZ12 knock down was tested by Western Blot. I.J. Cell proliferation was analyzed using H^3 Thymidine Incorporation after knock down of EZH2 and SUZ12. K.L. Relative expression of cyclin-dependent kinase inhibitors (p16 and p18) in shEZH2, shSUZ12 and Dznep treated cells after IL-22 treatment. M. The level of H3K27me3 in the promoter of p16 and p18 was analyzed by ChIP assay.
A. The protein level of phosphorylated STAT3, STAT1 and STATS were activated by IL-22. B. The effect of STAT3 knock down. C. The effect of IL-22 on cell proliferation was analyzed using H^3 Thymidine Incorporation in Stat3 knock down cells. D. Knock down of STAT3 reduced the expression of EZH2 and SUZ12. E. Based on the ENCODE STAT3-ChIP-Seq data base, STAT3 occupancy on the promoter areas of SUZ12 and EED is shown. F. SUZ12/EED DNA was detected by ChIP assay using an antibody against STAT3, c-fos was used as a positive control.
The mRNAs were quantified by real-time RT-PCR. SYBR Green Master Mix was used to detect fluorescence. Relative expression was calculated according to the Ct value with normalization to GAPDH.
Western Blot assay was performed with specific antibodies against human Stat3, phosphorylate Stat3 (Cell Signaling), Sox2, SUZ12(Santa Cruz biotechnology), EZH2 (Abcam), H3K27me3 and H3K79me2 (Millipore).

[3] = 10^5 DLD-1 cells pre-incubated with IL-22 (20 ng/ml) 1 hour

Substance: IL-22: recombinant IL-22 (R&D systems), cytokine interleukin-22
- mouse survival [1, 3]: decreased
- tumor incidence [1, 3]: increased
- tumor volume [1, 3]: increased
- tumor development (incidence) ([1]; 10^6 IL-22 treated DLD-1 cells): accelerated
- tumor growth ([1]; 10^6 IL-22 treated DLD-1 cells): accelerated
- protein level of EZH2 and SUZ12 ([2]; FIG. 19D): up regulate
- CBX8 expression ([2]; IL-22 20 ng/ml): increased
- mRNA expression level of EED ([2]; IL-22 20 ng/ml): increased to a lesser extent
- mRNA expression level of SUZ12 ([2]; IL-22 20 ng/ml): significantly increase
- EED and SUZ12 expression (western blotting) ([2]; IL-22 24 h or 48 h): increased to a lesser extent
- EZH2 expression (western blotting) ([2]; IL-22 24 h or 48 h): increased

— patent US9618513B2, “Compositions and methods for detecting and treating colorectal cancer” (The Regents of the University of Michigan, priority 2014, dated 2017)
